“Also recorded” adds a separate entry of the source.
Experiments:
[1] = tested on: subjects with mild to moderate photodamage; assay: Study 3: Retinol 3% (oil-free) vs. RA 0.3%, split-face single-blind clinical study, series of three peel procedures
[2] = tested on: subjects having Fitzpatrick Skin Types I-IV; details: split-face: Retinoic Acid 0.3% right side vs Retinol 2% left side; 7-day; FIG. 1
[3] = FIG. 8, post-peel #3, blinded photograph evaluation by an expert physician

| stinging/burning and tightness (investigator and subject assessments) [2] | Structure (SMILES) | subjects preferred treated side, post-peel #1 subject assessment ([1]; FIG. 5) | subjects preferred treated side, post-peel #2 subject assessment ([1]; FIG. 6) | subjects preferred treated side, post-peel #3 subject assessment ([1]; FIG. 7) | investigator noticed no difference between the sides ([1]; FIG. 4, Retinol 3% (oil-free) vs Retinoic Acid 0.3%) | subjects felt no difference between the sides, post-peel #1 ([1]; FIG. 5, Retinol 3% (oil-free) vs Retinoic Acid 0.3%) | subjects felt no difference between the sides, post-peel #2 ([1]; FIG. 6, Retinol 3% (oil-free) vs Retinoic Acid 0.3%) | subjects felt no difference between the sides, post-peel #3 ([1]; FIG. 7, Retinol 3% (oil-free) vs Retinoic Acid 0.3%) | improvement in fine lines and wrinkles compared to retinoic acid [1, 3] | improvement in photodamage compared to retinoic acid [1, 3] | improvement in unevenness of skin tone compared to retinoic acid [1, 3] | subjects demonstrating a difference favoring the treated side ([1]; end of treatment, one subject) [%] | adverse reaction on treated side ([1]; one subject, treated with topical hydrocortisone for 3 days, resolved, no reaction on re-challenge) |
| --- | --- | --- | --- | --- | --- | --- | --- | --- | --- | --- | --- | --- | --- |
| more | CC1=C(/C=C/C(C)=C/C=C/C(C)=C/C(=O)O)C(C)(C)CCC1 [Retinoic Acid] | 10 % of subjects | 10 % of subjects | 0 % of subjects | – | – | – | – | – | – | – | – | – |
| – | CC1=C(/C=C/C(C)=C/C=C/C(C)=C/CO)C(C)(C)CCC1 [retinol, (2E,4E,6E,8E)-3,7-dimethyl-9-(2,6,6-trimethylcyclohex-1-enyl)nona-2,4,6,8-tetraen-1-ol] | 15 % of subjects | 5 % of subjects | 5 % of subjects | 95 % of subjects | 75 % of subjects | 85 % of subjects | 95 % of subjects | about twice as much improvement; also recorded: superior efficacy | about twice as much improvement; also recorded: superior efficacy | about twice as much improvement; also recorded: superior efficacy | 5 | irritation (rash, redness) |
